# Publication PMC10517971, “An inverse agonist of orphan receptor GPR61 acts by a G protein-competitive allosteric mechanism” (Nature Communications, 2023)
# Read-outs that look alike come from different tables or passages of the source.
# How the values were obtained:
# panel of GPCRs = assay: GPCR selectivity panel; assay type: cell-based
# Method: A homogeneous Time-Resolved Fluorescence (HTRF) assay (Perkin Elmer, Dynamic2 kit #) was used to assess receptor basal and inverse agonist activity at human GPR61, GPR62, and GPR101. For routine inverse agonist screening frozen CHO TREx human GPR61, GPR62 and GPR101 cells were used. Cells were thawed, resuspended in complete assay media (DMEM F-12, 10% HI FBS, 100 μg/mL Normocin, 700 μg/mL Hygromycin B and 15 μg/mL Blasticidin) containing 1ug/ml doxycycline, plated in white 384 well plates (Corning, 3570) at a density of 750 cells/well (25 μl/ well) and cultured at 37 °C in an incubator overnight. For studies assessing basal and inverse agonist activity at human GPR61 mutants, CHO-K1 cells were transiently transfected using Fugene6, plated in white 384 well plates (7500 cells/well) and grown overnight at 37 °C, as described for receptor expression studies. […] Data were analyzed using the ratio of fluorescence intensity at 620 and 665 nm for each well, extrapolated from the cAMP standard curve to express data as nM cAMP for each well. […]
# 7 recepto r activities wer e measured using FL IPR® Calcium Assays. […]
# 11 measured using a cal cium specific dye. […]
# 18 change in fluorescence from baseline over a 60 second period (Excitation 470- 495 nm; Emission […]
# 20 Tetra® instrument to evaluate antagonist activity, with the change in fluorescence from baseline
# 21 being measured over a 60 second period. […]
# Human PDE8B = Human PDE8B (Homo sapiens, UniProt O95263); assay: Phosphodiesterase Assay (SPA); assay type: biochemical
# Nav1.5 (Peak) = Nav1.5 (Peak) (Homo sapiens, UniProt Q14524); assay: Nav1.5 (peak current) ion channel profiling, Qube384 automated patch clamp (standard and extended protocol); assay type: cell-based
# Description: 105 hERG, Nav1.5 and Cav1.2 Ion Channel Profiling
# 106 Ionic curr ents wer e evalu ated in the whole-cell con figuration using the Qube384 automated planar
# 107 patch clamp platform (Sophion Bioscience A/S, Ballerup, Denmark). […]
# 116 HEPES, 2 Na2ATP, pH 7.2, 305 mOsM. […]
# 126 Nav1.5 current, from a holding potential of - 80 mV, a 200 ms prepulse to - 120 mV was used to
# 127 homogenize channel inactivation, followed by a 40 ms step to a test potential of - 15 mV.
# 128 Membrane potential was further depolarized to +40 mV for 200 ms to completely inactivate the
# 129 peak Nav1.5 current, followed by a ramp from +40 mV to - 80 mV (-1.2 mV/ms). This voltage
# 130 pattern was repeated at 0.1 Hz, with peak Nav1.5 defined as the maximum current during the step
# 131 to - 15 mV. All studies were conducted at 23° C.
# 132 Compounds were dissol ved and initially diluted in dimethyl sulfoxide (DMSO), with a final
# 133 dilution in external solution to generate final working concent rations. The final DMSO
# 134 concentration in all experiments was 0.33% (v/v).
# 135 For all protocols three vehicle periods each lasting 5 minutes were applied to establish a stable
# 136 baseline. For the standard protocol this was followed by the addition of increasing concentrations
# 137 of test compound, with each exposure lasting 5 minutes. For the “extended” protocol following
# 138 the three- vehi cle additional each well subsequentl y received a single concentration of compound.
# 139 This application was repeated three times for each well, via a flowthrough addition where the
# 140 solution was replaced wi th the same compound concentration with each addition. Each exposure
# 142 Patch clamp data were analyzed using Assay Software 6.4.72 (Sophion Bioscience A/S, Ballerup,
# 143 Denmark). Current amplitudes were determined by averaging the last 4 currents under each test
# 144 condition. The percentage inhibition of each compound was determined by taking the ratio of
# 145 current amplitude measured in the presence of various concentrations of the test compound
# 146 (ICompound) versus the vehicle control current (IVehicle):
# 148 A dose-response curve was generat ed and fit to the Hill equation by the Sophion Analyzer software
# 149 to determine an IC50 value for each compound. The minimum and the slope of the fit were free
# 150 fitted, with the top being fixed to 100% inhibition.
# 151 GABA Patch Clamp Assay
# 152 Compound effects on the human GABAA recepto r (α1β2γ2), stably express ed in human embryonic
# 153 kidney (HEK) cells, were examined in three modes of action: agonist, antagonist and positive
# 154 allosteric modulation (PAM) modes. Chloride currents evoked by the activation of the GABAA
# 155 recepto r wer e reco rded in the whole- cell patch clamp configuration with the automated Qube384®
# 156 platform (Sophion Bioscience A/S, Baltorpvej, Denmark). […]
# Chain of Nav1.5 (Peak) (Q14524 whole entry): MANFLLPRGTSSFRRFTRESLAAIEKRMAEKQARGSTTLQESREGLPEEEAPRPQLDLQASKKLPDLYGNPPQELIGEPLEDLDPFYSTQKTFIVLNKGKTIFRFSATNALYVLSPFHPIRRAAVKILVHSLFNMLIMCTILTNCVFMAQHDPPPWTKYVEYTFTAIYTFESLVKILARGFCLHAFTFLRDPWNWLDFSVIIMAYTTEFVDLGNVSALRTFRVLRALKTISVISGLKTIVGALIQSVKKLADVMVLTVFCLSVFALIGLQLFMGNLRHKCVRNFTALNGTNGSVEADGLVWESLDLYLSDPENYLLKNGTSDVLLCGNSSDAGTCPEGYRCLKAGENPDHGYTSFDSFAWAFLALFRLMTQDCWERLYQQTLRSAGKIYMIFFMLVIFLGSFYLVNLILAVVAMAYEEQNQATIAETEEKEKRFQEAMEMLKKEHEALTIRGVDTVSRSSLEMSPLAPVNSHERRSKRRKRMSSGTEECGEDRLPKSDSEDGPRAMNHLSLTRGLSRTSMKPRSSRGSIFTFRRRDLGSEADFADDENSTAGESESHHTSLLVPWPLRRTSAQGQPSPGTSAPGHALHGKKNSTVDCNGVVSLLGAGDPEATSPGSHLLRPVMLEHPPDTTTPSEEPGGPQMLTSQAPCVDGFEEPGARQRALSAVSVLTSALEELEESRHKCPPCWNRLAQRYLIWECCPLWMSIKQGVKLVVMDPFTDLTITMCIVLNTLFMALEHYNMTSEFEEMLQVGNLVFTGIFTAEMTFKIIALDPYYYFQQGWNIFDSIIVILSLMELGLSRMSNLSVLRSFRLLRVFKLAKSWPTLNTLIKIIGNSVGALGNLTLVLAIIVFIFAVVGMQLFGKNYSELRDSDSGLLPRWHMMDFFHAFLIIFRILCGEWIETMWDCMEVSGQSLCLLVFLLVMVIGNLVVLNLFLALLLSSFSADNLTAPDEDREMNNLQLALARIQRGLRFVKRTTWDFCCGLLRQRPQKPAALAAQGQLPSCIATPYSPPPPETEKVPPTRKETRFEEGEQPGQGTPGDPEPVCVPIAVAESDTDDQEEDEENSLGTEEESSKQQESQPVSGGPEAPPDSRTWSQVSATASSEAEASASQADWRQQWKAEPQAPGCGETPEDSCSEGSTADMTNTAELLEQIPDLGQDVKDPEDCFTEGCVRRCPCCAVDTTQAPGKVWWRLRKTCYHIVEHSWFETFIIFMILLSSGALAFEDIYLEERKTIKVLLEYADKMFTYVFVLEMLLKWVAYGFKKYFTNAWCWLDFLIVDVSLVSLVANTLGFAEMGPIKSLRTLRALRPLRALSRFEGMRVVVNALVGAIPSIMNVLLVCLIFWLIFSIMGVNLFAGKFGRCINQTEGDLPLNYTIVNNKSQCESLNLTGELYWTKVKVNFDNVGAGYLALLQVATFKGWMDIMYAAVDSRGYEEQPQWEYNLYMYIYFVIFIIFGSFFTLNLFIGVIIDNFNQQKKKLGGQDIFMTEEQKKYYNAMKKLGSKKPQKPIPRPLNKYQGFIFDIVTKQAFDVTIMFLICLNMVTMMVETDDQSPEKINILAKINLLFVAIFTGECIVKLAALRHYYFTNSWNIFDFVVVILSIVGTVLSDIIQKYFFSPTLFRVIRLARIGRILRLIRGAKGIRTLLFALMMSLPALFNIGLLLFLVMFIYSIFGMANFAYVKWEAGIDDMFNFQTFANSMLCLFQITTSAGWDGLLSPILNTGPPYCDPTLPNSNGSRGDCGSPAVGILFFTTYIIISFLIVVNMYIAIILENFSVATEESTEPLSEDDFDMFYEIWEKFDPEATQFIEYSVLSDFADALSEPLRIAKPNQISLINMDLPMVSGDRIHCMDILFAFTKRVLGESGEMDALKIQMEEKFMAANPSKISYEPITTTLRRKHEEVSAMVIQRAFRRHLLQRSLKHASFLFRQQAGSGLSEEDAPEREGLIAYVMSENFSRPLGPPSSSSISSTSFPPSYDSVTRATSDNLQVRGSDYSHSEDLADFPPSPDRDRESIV
# Chain of Human PDE8B (O95263 whole entry): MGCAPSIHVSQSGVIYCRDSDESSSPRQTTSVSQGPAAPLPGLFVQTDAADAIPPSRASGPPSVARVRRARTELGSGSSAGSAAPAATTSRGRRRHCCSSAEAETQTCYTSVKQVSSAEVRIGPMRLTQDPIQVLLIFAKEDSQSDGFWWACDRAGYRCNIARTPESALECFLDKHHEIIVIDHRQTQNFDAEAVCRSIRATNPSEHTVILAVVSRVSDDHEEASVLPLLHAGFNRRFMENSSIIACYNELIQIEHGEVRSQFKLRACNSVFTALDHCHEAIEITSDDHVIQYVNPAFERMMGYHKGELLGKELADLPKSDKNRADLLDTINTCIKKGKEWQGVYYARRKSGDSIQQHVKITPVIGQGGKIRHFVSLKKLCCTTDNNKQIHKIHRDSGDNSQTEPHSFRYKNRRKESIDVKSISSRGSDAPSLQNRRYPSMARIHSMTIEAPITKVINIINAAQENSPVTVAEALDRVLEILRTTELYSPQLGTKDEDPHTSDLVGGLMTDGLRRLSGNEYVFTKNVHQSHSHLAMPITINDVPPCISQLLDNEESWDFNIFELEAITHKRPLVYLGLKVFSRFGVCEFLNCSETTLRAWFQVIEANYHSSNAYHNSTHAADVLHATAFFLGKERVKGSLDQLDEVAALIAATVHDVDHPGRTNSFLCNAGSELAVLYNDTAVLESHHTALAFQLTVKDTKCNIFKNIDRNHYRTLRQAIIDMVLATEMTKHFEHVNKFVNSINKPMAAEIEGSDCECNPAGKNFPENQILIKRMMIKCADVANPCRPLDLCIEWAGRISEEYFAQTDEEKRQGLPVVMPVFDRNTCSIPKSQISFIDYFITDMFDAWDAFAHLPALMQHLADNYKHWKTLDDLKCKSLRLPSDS
structure (smiles),measurement,setting,value
CCOc1cc(C)nc(N(CCOC)S(=O)(=O)c2ccc(NCc3c(F)cncc3F)nc2OC)n1 [Compound 1],IC50,"panel of GPCRs; panel of GPCRs, read-out: off-target IC50 values",> 10 µM
same,selectivity for GPR61,panel of GPCRs; panel of common off-target GPCRs and related receptors GPR62 and GPR101,selective
same,IC50,Human PDE8B,9.07 µM
same,IC50,Nav1.5 (Peak),> 100000 nM
same,IC50,"Nav1.5 (Peak); read-out: Ion Channel Extended Protocol IC50 (nM), Period 1st, Nav1.5 (Peak), extended protocol, 1st period",> 100000 nM
same,IC50,"Nav1.5 (Peak); read-out: Ion Channel Extended Protocol IC50 (nM), Period 2nd, Nav1.5 (Peak), extended protocol, 2nd period",> 100000 nM
same,IC50,"Nav1.5 (Peak); read-out: Ion Channel Extended Protocol IC50 (nM), Period 3rd, Nav1.5 (Peak), extended protocol, 3rd period",> 100000 nM
